Experimental data: patent US7547519B2, “Methods of diagnosing multidrug resistant tuberculosis” (The United States of America as represented by the …, priority 2000, dated 2009)
Converted amounts (≈) assume the structure as drawn.

How the values were obtained:
MSm = assay: microbe, parasite or virus in culture; format: cell-based, Mycobacterium smegmatis
MTb H37Rv = settings: wild type MTb; cited from earlier work

## CCc1cc(C(N)=S=O)ccn1 [ETA S-oxide]
MSm
  absolute MIC compared with ETA: lower
  effect of EtaR/EtaA overexpression on susceptibility: EtaR conferred resistance and EtaA conferred hypersensitivity

## CCc1cc(C(N)=S)ccn1 [ETA, ethionamide]
MTb H37Rv
  MIC: 1.0 µg/mL (≈ 6.02 µM)
MSm
  concentration at which growth occurred: 50 µg/mL
  concentration at which transformants were able to grow: greater than 200 μg/ml
  concentration with noticeable growth inhibition: 2.5 µg/mL
MSm; Mycolicibacterium smegmatis
  MIC: > 62.5 µg/mL

## NNC(=O)c1ccncc1 [INH, isoniazid]
MSm
  susceptibility to killing: equally susceptible
